{"source": "patent US20150141523A1", "about": "“COMPOUNDS FOR USE IN THE TREATMENT OF AUTOIMMUNE INFLAMMATORY DISEASE” (Venantius Limited, priority 2012, published 2015)", "key": {"[1]": {"system": "Balb/C mice", "experiment": "Oxazolone contact hypersensitivity (CHS) mouse ear swelling", "type": "in vivo", "conditions": "15 mg/kg; vehicle 107%", "protocol": "Female Balb/C mice (30-40 gms) were sensitised on day 0 with 20 μl of 2% oxazolone in acetone on each ear (10 μl on the inner and outer aspects of both ears). All mice were challenged on day 5 with 20 μl of 2% oxazolone in acetone only on the right ear; again, 10 μl on both the inner and outer aspects of the ear. Immediately following this, the mice were treated with test compound. The test compound was administered in exactly the same way as the oxazolone, with 10 μl on each side of the right ear. […] For the […] group, acetone was administered. All animals were killed 24 hrs later and the percentage increase in ear swelling was calculated. This was done in two ways. The thickness of the unchallenged left ear and the challenged right ear were measured using a micrometer caliper (μm). The increase in weight of both ears was also measured using a 5 mm biopsy punch (mgs). The percentage increase in oedema was then calculated for both weight and thickness by expressing the difference between the unchallenged left ear and the challenged right ear as a percentage of the left ear control."}, "[2]": {"system": "β-hexosaminidase release from RBL-2H3 cells", "conditions": "cited from earlier work"}, "[3]": {"system": "Jurkat cells", "experiment": "Jurkat cell viability (Acridine Orange/Ethidium Bromide)", "type": "cell-based", "protocol": "(§1) (A) Anti-TCR/CD28-mediated activation of Jurkat cells: Experiments involving anti-TCR/CD28-mediated activation of Jurkat T lymphocytes were carried out on 24-well cell culture plates. The plates were coated with a 1/100 dilution of rabbit anti-mouse IgG in sterile PBS (1×) and incubated overnight at 4OC. Unbound antibody was aspirated and the wells were gently rinsed with warm sterile PBS. The PBS was aspirated and the wells were coated with a 1/100 dilution of anti-TCR antibody (OKT-3) and a 1/200 dilution of anti-CD28 antibody (both antibodies pre-mixed prior to addition to the plates) in sterile PBS. The plates were then incubated for 1-2 hours at 37° C. Unbound antibody was aspirated and the wells were gently rinsed with warm PBS. The PBS was left on the plate until the Jurkat cells were ready to be added to the plate. The Jurkat cells were harvested from the T-75cm2 cell culture flasks and resuspended at a density of 0.5×10^6 cells per ml. The compounds were dissolved at a specified stock concentration (see results section) and diluted to the required concentration by adding the drug to the cell suspension. The cells were then pre-incubated with the compounds or with an equivalent volume of drug vehicle control (DMSO) for 30 minutes prior to adding the cell suspension to the antibody-coated plates. Cyclosporine A (1 μM) was used as a positive control to inhibit IL-2 production from activated T cells and was preincubated with the 6 cells as described above in parallel. The cells were then incubated on the plates with the acti-TCR/CD28 antibodies for 24 hours at 37° C. and 5% CO2 in a humidified atmosphere. After 24 hours, the cell suspension was removed from the plates and the cells were pelleted by centrifugation. The cell culture supernatant was saved and analysed for secreted IL-2 by ELISA. The cell pellet was saved and cell viability was measured using Acridine Orange/Ethidium Bromide cell viability staining solution.\nThe cell pellet was resuspended in 20 μl of Acridine Orange/Ethidium Bromide staining solution. A portion of this cell suspension was placed on a haemocytometer and analysed under a fluorescence microscope. […] The ratio of viable cells: non-viable cells were calculated for each activation time point/drug treatment."}, "[4]": {"system": "IL-2 secretion from Jurkat T cells", "experiment": "IL-2 secretion from activated Jurkat T cells (ELISA)", "type": "cell-based, human", "conditions": "for IL-2 [ ]pg/ml (1) / IL-2 % Control (1): experiment (1); for IL-2 % Control (1) / IL-2 % Control (2) / IL-2 % Control (3): relative to DMSO 0.1%; for IL-2 [ ]pg/ml (2) / IL-2 % Control (2): experiment (2); for IL-2 [ ]pg/ml (3) / IL-2 % Control (3): experiment (3)", "protocol": "The T cell line Jurkat 6.1 (ATCC) was used. Cells were pre-treated for 30 min with 1 μM or 10 μM of the respective compound and then stimulated with plate-bound anti-CD3 (BD Pharmingen) and anti-CD28 (AnCell). DMSO was used as vehicle control. The immunosuppressive agent Cyclosporine A was used as a control for inhibition of IL-2 production. After 24 hs the supernatant was collected and IL-2 secretion was measured by ELISA.\nJurkat T cells were cultured in RMPI-1640 medium containing 10 % Foetal Bovine Serum, Penicillin/Streptomycin and L-Glutamine in T-75cm2 flasks at 37° C. and 5 % CO2. Cells were seeded into new culture flasks at a density of 1-3×10^5 cells per ml and maintained at a density of 0.5−1×10^6 cells per ml.\nas §1\n(B) PHA/PMA-mediated activation of Jurkat cells Jurkat cells were resuspended at a concentration of 0.5×10^6 cells per ml and the Pharmatrin compounds at the desired concentration or an equivalent volume of drug vehicle control (DMSO) were added to the cells and incubated for 30 minutes. Cyclosporine A (1 ∝M) was used as a positive control to inhibit IL-2 production from activated T cells and was preincubated with the cells as described above in parallel. PHA and PMA were added to the cell suspension (10 ∝g/ml and 10 ng/ml respectively) and the cells were plated onto uncoated 24-well plates. The cells were incubated on the plates for 24 hours at 37° C. and 5 % CO2 in a humidified atmosphere. After 24 hours, the cell suspension was removed from the plates and the cells were pelleted by centrifugation. The cell culture supernatant was saved and analysed for secreted IL-2 by ELISA.\nThe cell culture supernatants were analysed for IL-2 by ELISA (96-well plate format) using the Human IL-2 ELISA kit from R&D Systems Europe. This assay was carried out using the standard protocol outlined by the company. Samples and standards (recombinant human IL-2 provided by R&D Systems) were analysed in triplicate. […]"}, "[5]": {"system": "BalbC mice", "experiment": "Arachidonic acid mouse ear oedema model", "type": "in vivo", "conditions": "300 μg/ear in acetone, topical; arachidonic acid alone 86%", "protocol": "The arrachidonic mouse ear oedema model is an acute inflammation model based on activation of ecosanoid pathways. The mouse ear oedema model was performed using BalbC mice (25-35 g), of either sex. The ear was treated by the topical application (10 μl) of solvent (acetone 100%) or test drug (300 μg/ear in acetone) or Indomethacin (300 μg/ear in acetone). After one hour, oedema was induced by the topical application of arachidonic acid (10 μl at 0.4 g/ml in acetone). The width of each ear was measured, both before and 60 min after the induction of oedema, using a micrometer screw gauge. Ear oedema was calculated by comparing the ear width before and after induction of oedema and expressed as percentage normal. Animals were killed using CO2, without recovering from sedation."}, "[6]": {"conditions": "RBL-2H3 cells, Inflamm. Res. 57 (2008)"}}, "note": "Read-outs that look alike come from different tables or passages of the source.", "data": [{"compound": "C[C@@H]1C[C@H]2[C@@H]3CCC4=CC(=O)C=C[C@]4(C)[C@@]3(F)[C@@H](O)C[C@]2(C)[C@@]1(O)C(=O)CO", "note": "[dexamethasone, reference compound]", "values": [{"measurement": "increase in ear punch weight", "setting": "[1]", "result": 42, "unit": "%"}]}, {"compound": "(S,S and RR)2-Benzyl-2,3-dihydro-1H,1′H-2,2′-biinden-1-ol [Compound 6]", "values": [{"measurement": "inhibition of β-hexosaminidase release", "setting": "[2]; RBL-2H3 cells stimulated by calcium ionophore A23187, Bioorg. Med. Chem. Lett. 19(20), 2009", "result": "dose-dependant inhibition"}, {"measurement": "inhibition of β-hexosaminidase release", "setting": "[2]; [6]", "result": "dose dependent inhibition"}]}, {"compound": "(R,S or SR)2-Benzyl-2,3-dihydro-1H,1′H-2,2′-biinden-1-ol [Compound 7]", "values": [{"measurement": "cell viability", "setting": "[3]", "result": "without affecting cell viability"}, {"measurement": "IL2 release from Jurkat cells", "setting": "[4]", "result": "inhibited IL2 release"}, {"measurement": "IL-2 [ ]pg/ml (1)", "setting": "[4]; 0.3 uM", "result": 44.65, "unit": "pg/mL"}, {"measurement": "IL-2 % Control (1)", "setting": "[4]; 0.3 uM", "result": 218.87, "unit": "%"}, {"measurement": "IL-2 [ ]pg/ml (2)", "setting": "[4]; 0.3 uM", "result": 93.65, "unit": "pg/mL"}, {"measurement": "IL-2 % Control (2)", "setting": "[4]; 0.3 uM", "result": 143.42, "unit": "%"}, {"measurement": "IL-2 [ ]pg/ml (3)", "setting": "[4]; 0.3 uM", "result": 112.94, "unit": "pg/mL"}, {"measurement": "IL-2 % Control (3)", "setting": "[4]; 0.3 uM", "result": 85.85, "unit": "%"}, {"measurement": "IL-2 [ ]pg/ml (1)", "setting": "[4]; 1 uM", "result": 49.20, "unit": "pg/mL"}, {"measurement": "IL-2 % Control (1)", "setting": "[4]; 1 uM", "result": 241.18, "unit": "%"}, {"measurement": "IL-2 [ ]pg/ml (2)", "setting": "[4]; 1 uM", "result": 71.40, "unit": "pg/mL"}, {"measurement": "IL-2 % Control (2)", "setting": "[4]; 1 uM", "result": 109.34, "unit": "%"}, {"measurement": "IL-2 [ ]pg/ml (3)", "setting": "[4]; 1 uM", "result": 109.59, "unit": "pg/mL"}, {"measurement": "IL-2 % Control (3)", "setting": "[4]; 1 uM", "result": 83.31, "unit": "%"}, {"measurement": "IL-2 [ ]pg/ml (1)", "setting": "[4]; 3 uM", "result": 43.25, "unit": "pg/mL"}, {"measurement": "IL-2 % Control (1)", "setting": "[4]; 3 uM", "result": 212.01, "unit": "%"}, {"measurement": "IL-2 [ ]pg/ml (2)", "setting": "[4]; 3 uM", "result": 45.10, "unit": "pg/mL"}, {"measurement": "IL-2 % Control (2)", "setting": "[4]; 3 uM", "result": 69.07, "unit": "%"}, {"measurement": "IL-2 [ ]pg/ml (3)", "setting": "[4]; 3 uM", "result": 97.25, "unit": "pg/mL"}, {"measurement": "IL-2 % Control (3)", "setting": "[4]; 3 uM", "result": 73.92, "unit": "%"}, {"measurement": "IL-2 [ ]pg/ml (1)", "setting": "[4]; 10 uM", "result": 24.75, "unit": "pg/mL"}, {"measurement": "IL-2 % Control (1)", "setting": "[4]; 10 uM", "result": 121.32, "unit": "%"}, {"measurement": "IL-2 [ ]pg/ml (2)", "setting": "[4]; 10 uM", "result": 36.75, "unit": "pg/mL"}, {"measurement": "IL-2 % Control (2)", "setting": "[4]; 10 uM", "result": 56.28, "unit": "%"}, {"measurement": "IL-2 [ ]pg/ml (3)", "setting": "[4]; 10 uM", "result": 81.84, "unit": "pg/mL"}, {"measurement": "IL-2 % Control (3)", "setting": "[4]; 10 uM", "result": 62.21, "unit": "%"}, {"measurement": "IL-2 [ ]pg/ml (1)", "setting": "[4]; 30 uM", "result": 10.10, "unit": "pg/mL"}, {"measurement": "IL-2 % Control (1)", "setting": "[4]; 30 uM", "result": 49.51, "unit": "%"}, {"measurement": "IL-2 [ ]pg/ml (2)", "setting": "[4]; 30 uM", "result": 27.80, "unit": "pg/mL"}, {"measurement": "IL-2 % Control (2)", "setting": "[4]; 30 uM", "result": 42.57, "unit": "%"}, {"measurement": "IL-2 [ ]pg/ml (3)", "setting": "[4]; 30 uM", "result": 32.00, "unit": "pg/mL"}, {"measurement": "IL-2 % Control (3)", "setting": "[4]; 30 uM", "result": 24.32, "unit": "%"}, {"measurement": "IL-2 [ ]pg/ml (1)", "setting": "[4]; 100 uM", "result": 1.15, "unit": "pg/mL"}, {"measurement": "IL-2 % Control (1)", "setting": "[4]; 100 uM", "result": 5.64, "unit": "%"}, {"measurement": "IL-2 [ ]pg/ml (2)", "setting": "[4]; 100 uM", "result": -19.30, "unit": "pg/mL"}, {"measurement": "IL-2 % Control (2)", "setting": "[4]; 100 uM", "result": "−29.56", "unit": "%"}, {"measurement": "IL-2 [ ]pg/ml (3)", "setting": "[4]; 100 uM", "result": -3.13, "unit": "pg/mL"}, {"measurement": "IL-2 % Control (3)", "setting": "[4]; 100 uM", "result": "−2.38", "unit": "%"}]}, {"compound": "O[C@@H]1c2ccccc2C[C@]1(Cc1ccccc1)C1=Cc2ccccc2C1", "note": "(racemic) [Compound 5, (R,S and SR)2-Benzyl-2,3-dihydro-1H,1′H-2,2′-biinden-1-ol]", "values": [{"measurement": "inhibition of β-hexosaminidase release", "setting": "[2]; [6]", "result": "dose dependent inhibition"}]}, {"compound": "COc1ccc2c(c1)c(CC(=O)O)c(C)n2C(=O)c1ccc(Cl)cc1", "note": "[Indomethacin, reference compound]", "values": [{"measurement": "ear swelling (increase in ear thickness)", "setting": "[5]", "result": 40, "unit": "%"}]}]}
